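Method: 48-hour compound exposure of cells in 96-well plates, five concentrations, linear interpolation of endpoints. At the GI50, growth is halved.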 Calls of active or inactive are those of the source. Cut-off read from the data, not from the text of the source: active = GI50 up to about 1.1 µM and inactive = higher.
What was measured:
Assay in all cases: NCI-60 cell line screen, 48 h
T47D = tested on: T47D
OVCAR-3 = tested on: OVCAR-3
Malme-3M = tested on: Malme-3M
HOP-92 = tested on: HOP-92
MOLT-4 = tested on: MOLT-4
MCF7 = tested on: MCF7
SF-295 = tested on: SF-295
MDA-MB-231 = tested on: MDA-MB-231
BT-549 = tested on: BT-549
SK-MEL-28 = tested on: SK-MEL-28
OVCAR-5 = tested on: OVCAR-5
Hs-578T = tested on: Hs-578T
A549 = tested on: A549
M14 = tested on: M14
K562 = tested on: K562
RXF 393 = tested on: RXF 393
NCI/ADR-RES = tested on: NCI/ADR-RES
OVCAR-8 = tested on: OVCAR-8
HCT-116 = tested on: HCT-116
SR = tested on: SR
HOP-62 = tested on: HOP-62
IGROV-1 = tested on: IGROV-1
UACC-257 = tested on: UACC-257
UACC-62 = tested on: UACC-62
PC-3 = tested on: PC-3
NCI-H460 = tested on: NCI-H460
NCI-H23 = tested on: NCI-H23
HT-29 = tested on: HT-29
COLO 205 = tested on: COLO 205
CCRF-CEM = tested on: CCRF-CEM
UO-31 = tested on: UO-31
SF-268 = tested on: SF-268
SN12C = tested on: SN12C
786-0 = tested on: 786-0
MDA-MB-435 = tested on: MDA-MB-435
SK-MEL-2 = tested on: SK-MEL-2
U-251 = tested on: U-251
DU-145 = tested on: DU-145
SF-539 = tested on: SF-539
HL-60 = tested on: HL-60
SNB-75 = tested on: SNB-75
OVCAR-4 = tested on: OVCAR-4
SK-MEL-5 = tested on: SK-MEL-5
LOX IMVI = tested on: LOX IMVI
KM12 = tested on: KM12
RPMI-8226 = tested on: RPMI-8226
A498 = tested on: A498
MDA-N = tested on: MDA-N
SW-620 = tested on: SW-620
NCI-H226 = tested on: NCI-H226
SK-OV-3 = tested on: SK-OV-3
SNB-19 = tested on: SNB-19
ACHN = tested on: ACHN
HCT-15 = tested on: HCT-15
CAKI-1 = tested on: CAKI-1
NCI-H522 = tested on: NCI-H522
TK-10 = tested on: TK-10
EKVX = tested on: EKVX

Measured: GI50

CNc1ncnc(Sc2nc(N)nc3[nH]cnc23)c1[N+](=O)[O-]
active: T47D 0.995 µM | OVCAR-3 0.75 µM | HOP-92 0.52 µM | MOLT-4 0.409 µM | MCF7 0.735 µM | SF-295 0.971 µM | M14 0.448 µM | K562 0.33 µM | RXF 393 0.45 µM | NCI/ADR-RES 0.427 µM | OVCAR-8 0.622 µM | HCT-116 0.39 µM | SR 0.1 µM | HOP-62 0.675 µM | UACC-62 0.586 µM | NCI-H460 0.552 µM | HT-29 1.09 µM | CCRF-CEM 0.084 µM | UO-31 0.676 µM | SF-268 0.566 µM | SN12C 0.933 µM | 786-0 0.583 µM | MDA-MB-435 0.48 µM | SK-MEL-2 0.634 µM | DU-145 0.356 µM | SNB-75 0.406 µM | LOX IMVI 0.189 µM | RPMI-8226 0.15 µM | MDA-N 0.552 µM | SW-620 0.94 µM | SK-OV-3 0.547 µM | CAKI-1 0.582 µM | NCI-H522 0.635 µM | TK-10 0.251 µM
inactive: Malme-3M 1.46 µM | MDA-MB-231 1.73 µM | BT-549 2.6 µM | SK-MEL-28 8.2 µM | OVCAR-5 2.25 µM | Hs-578T 3.24 µM | A549 3.08 µM | IGROV-1 3.85 µM | UACC-257 1.54 µM | PC-3 4.23 µM | NCI-H23 1.21 µM | COLO 205 2.13 µM | U-251 4.42 µM | SF-539 5.09 µM | HL-60 1.91 µM | OVCAR-4 1.46 µM | SK-MEL-5 2.9 µM | KM12 2.64 µM | A498 17.9 µM | NCI-H226 5.7 µM | SNB-19 35.6 µM | ACHN 2.84 µM | EKVX 3.08 µM
1.54 µM: HCT-15

CC(C)Oc1cc(O)c2c(c1)OCC=C2CCC(=O)O
inactive: T47D 39.3 µM | OVCAR-3 41 µM | HOP-92 20 µM | MOLT-4 23.8 µM | MCF7 13.9 µM | SF-295 43.5 µM | MDA-MB-231 36.8 µM | BT-549 31.3 µM | SK-MEL-28 36 µM | OVCAR-5 31.8 µM | Hs-578T 42.2 µM | A549 28.1 µM | M14 25.9 µM | K562 28.4 µM | RXF 393 69.5 µM | NCI/ADR-RES 28.4 µM | OVCAR-8 36.1 µM | HCT-116 20.4 µM | SR 34 µM | HOP-62 30.5 µM | IGROV-1 35.7 µM | UACC-257 20.2 µM | UACC-62 26.9 µM | PC-3 54.6 µM | NCI-H460 33 µM | NCI-H23 37.2 µM | HT-29 19.9 µM | COLO 205 16.2 µM | CCRF-CEM 22.8 µM | UO-31 24.1 µM | SF-268 40.6 µM | SN12C 21.3 µM | 786-0 26.3 µM | MDA-MB-435 23.8 µM | SK-MEL-2 26.8 µM | U-251 67.1 µM | DU-145 52.5 µM | HL-60 20.6 µM | SNB-75 31 µM | OVCAR-4 39.3 µM | SK-MEL-5 18.4 µM | LOX IMVI 33.1 µM | KM12 31.5 µM | RPMI-8226 24.4 µM | A498 21.4 µM | MDA-N 21.7 µM | SW-620 27.8 µM | NCI-H226 15.5 µM | SK-OV-3 49 µM | SNB-19 38 µM | ACHN 22.1 µM | CAKI-1 37.2 µM | NCI-H522 21.2 µM | TK-10 20.3 µM | EKVX 17.3 µM
23.2 µM: HCT-15

Source: ChEMBL document CHEMBL1201862, “PubChem BioAssay data set” (2004)
